# Tested on: Septoria nodorum
# Assay: Test for preventive effect on Septoria leaf blotch of wheat
# Assay type: in vivo
# Settings: wheat seedlings (Norin-61-go), two-leaf stage, 50 ppm active ingredient, 10 ml per pot, evaluated 10 days after inoculation with Septoria nodorum
# Excerpt: [table] 10 Wheat seeds (variety: Norin-61-go) were sown in each plastic pot having a diameter of 6 cm, and grown in a greenhouse. […] Then, the seedlings were inoculated with Septoria nodorum […] controlled in a greenhouse. 10 Days after the inoculation, the total diseased area of the first leaves in each pot was observed and evaluated on the basis of the standards shown in Table 21.
row,SMILES,Evaluation (total diseased area of the first leaves)
1,COC(=O)NCc1cccc(C(C)=NOCc2ccccc2Cl)c1 [A-338],A (No diseased area)
2,COC(=O)NCc1cccc(C(C)=NOCc2cccc(Cl)c2)c1 [A-339],A (No diseased area)
3,COC(=O)NCc1cccc(C(C)=NOCc2ccc(Cl)cc2)c1 [A-340],B (Diseased area of less than 5%)
4,COC(=O)NCc1cc(C(=NOCc2ccccc2Cl)C2CC2)ccc1Cl [A-341],A (No diseased area)
5,COC(=O)NCc1cc(C(C)=NOCc2ccccc2F)ccc1C [A-342],A (No diseased area)
6,COC(=O)NCc1cccc(C(C)=NOCc2ccccc2C)c1 [A-343],A (No diseased area)
7,COC(=O)NCc1cccc(C(C)=NOCc2cccc(C)c2)c1 [A-344],A (No diseased area)
8,COC(=O)NCc1cccc(C(C)=NOCc2ccc(C)cc2)c1 [A-345],B (Diseased area of less than 5%)
9,COC(=O)NCc1cccc(C(C)=NOCc2ccccc2C(F)(F)F)c1 [A-348],B (Diseased area of less than 5%)
10,COC(=O)NCc1cccc(C(C)=NOCc2cccc(C(F)(F)F)c2)c1 [A-349],A (No diseased area)
11,COC(=O)NCc1cc(C(C)=NOCc2ccccn2)cc(C)c1Cl [A-355],B (Diseased area of less than 5%)
12,COC(=O)NCc1cc(C(C)=NOCc2ccccc2C#N)cc(C)c1Cl [A-356],A (No diseased area)
13,COC(=O)NCc1cc(C(C)=NOCc2ccccc2Cl)cc(C)c1C [A-358],A (No diseased area)
14,COC(=O)NCc1cc(C(=NOCc2ccccc2C)C2CC2)ccc1Cl [A-359],B (Diseased area of less than 5%)
15,COC(=O)NCc1cc(C(C)=NOCc2ccccc2C#N)ccc1C [A-360],A (No diseased area)
16,COC(=O)N(Cc1cc(C(C)=NOCc2ccccc2C#N)ccc1C)Cc1ccccc1C#N [A-361],B (Diseased area of less than 5%)
17,COC(=O)NCc1cc(C(C)=NOCc2cccc(C)c2)ccc1C [A-362],A (No diseased area)
18,COC(=O)NCc1cc(C(C)=NOCc2ccc(C)cc2)ccc1C [A-363],A (No diseased area)
19,COC(=O)NCc1cc(C(C)=NOCc2cccc(Cl)c2)ccc1C [A-364],A (No diseased area)
20,COC(=O)NCc1cc(C(C)=NOCc2ccc(Cl)cc2)ccc1C [A-365],B (Diseased area of less than 5%)
21,CON=C(C)CON=C(C)c1ccc(C)c(CNC(=O)OC)c1 [A-368],A (No diseased area)
22,COC(=O)NCc1cc(C(C)=NOCCc2ccccc2)ccc1C [A-369],A (No diseased area)
23,COC(=O)NCc1cc(C(C)=NOCc2cc(C)ccn2)ccc1Cl [A-370],A (No diseased area)
24,COC(=O)NCc1cc(C(C)=NOCc2cccc(Cl)c2)ccc1F [A-371],A (No diseased area)
25,COC(=O)NCc1cc(C(C)=NOCc2ccc(Cl)cc2)ccc1F [A-372],A (No diseased area)
26,COC(=O)NCc1cc(C(C)=NOCc2cccc(C)c2)ccc1F [A-373],A (No diseased area)
27,COC(=O)NCc1cc(C(C)=NOCc2ccc(C)cc2)ccc1F [A-374],A (No diseased area)
28,COC(=O)NCc1cc(C(C)=NOCc2cccc(C(F)(F)F)c2)ccc1F [A-375],B (Diseased area of less than 5%)
29,COC(=O)NCc1cc(C(C)=NOCc2ccc(C(F)(F)F)cc2)ccc1F [A-376],B (Diseased area of less than 5%)
30,COC(=O)NCc1cc(C(C)=NOCc2ccccc2C#N)ccc1F [A-377],A (No diseased area)

# From US6812229B1, “Carbamate derivative and agricultural/horticultural fungicide” (Kumiai Chemical Industry Co., Ltd., priority 1999, dated 2004)
